# Key:
# MDA-MB-231 [1] = assay: Intracellular ROS analysis with DCF-DA (FACS); assay type: cell-based; conditions: for Increase in ROS versus DMSO: 1 hour, DCF-DA
# From the text: We examined the status of intracellular ROS induced by 2a. For this experiment, we employed the used 2′,7′-dichlorofluoresceindiacetate (DCF-DA),[103] a fluorogenic dye with an excitation/emission wavelength of 495/525 nm. DCF-DA enters into the cell and is subsequently deacetylated by cellular esterases where it is then oxidized by ROS to produce a fluorescent compound that can detected with flow cytometry (FACS) using the FITC channel.[104]
# To quantify the amount of ROS produced, we subjected MDA-MB-231 cells to 2a at 10 and 20 μM to assess concentration dependence. Within 1 hour of treatment, we observed a 1.3× increase in ROS in cells treated with 2aversus DMSO (Fig. 11). At twice the concentration, 20 μM, we observed a 1.5× increase in ROS. […] When compared to the H2O2 control, 2a produces similar ROS levels in MDA-MB-231 cells (Fig. 11). […] To further solidify that the DCF-DA fluorescence is from ROS and not other reactive species such as RNS, we pre-treated cells with 10 mM N-acetyl cysteine for 2 h. NAC is a natural ROS scavenger and a key component in the formation of glutathione (GSH), which is a powerful antioxidant.[105,106] After pre-treatment, the cells were subjected to the same concentration of 2a (10 μM) for 1 h.
# 100 µL of dye into 900 µL of DMEM. Note: the working solution of JC-1 should always be prepared fresh and not stored for long-term use. Then, 100 µL/mL of DMEM were added to the cells and incubated at 37 °C for 20 minutes. Prior to imaging, the media was removed and replaced with room temperature PBS (2 mL). The cells were then visualized using confocal microscopy on a Nikon A1R Inverted Confocal Microscope. […]
# (§1) For the wells that were pre-treated with NAC, a stock solution of NAC in DMEM was added at a concentration of 10 mM for 2 h prior to the addition of 2a. […] The cells were then analyzed using FACS with the FITC channel […]
# (§2) Mitochondrial Metabolism Analysis with Seahorse XF96 Analysis. […] The optimum conditions were determined to be 30,000 cells/well and an FCCP injection concentration of 0.6 µM. […]
# MDA-MB-231 [2] = assay: Seahorse XF96 mitochondria stress test (OCR), MDA-MB-231; assay type: cell-based
# From the text: With the previous biological data pointing towards metabolic changes, we sought to explore further the effect 2a had on redox metabolism. The ETC is a complicated biological system that is constantly changing in response to external stress in order to achieve redox homeostasis within the cell. With the DEG data alluding to involvement of ETC genes (Fig. 9A), we then decided to look in depth at the effect of complexes on these biological parameters. We next performed oxygen consumption rate (OCR) experiments by Seahorse 96XF to quantify the effect of 2a on mitochondrial bioenergetics or stress (MitoStress) (Fig. 9B and C).[87] A series of known inhibitors of the various parts of the ETC that allow for the measurement of specific parameters were used. […] ATP linked respiration was also calculated and found to be decreased by more than 80% at 3 μM treatment (Fig. 9F). […]
# as §1, §2
smiles,measurement,setting,value
C[N+](C)=C1[S][Au-2]2([S]1)[c]1ccccc1Cc1cccc[n+]12.F[P-](F)(F)(F)(F)F (centres unmarked) [2a],Increase in ROS versus DMSO,"MDA-MB-231 [1]; MDA-MB-231, 10 μM",1.3 ×
same,Increase in ROS versus DMSO,"MDA-MB-231 [1]; MDA-MB-231, 20 μM",1.5 ×
same,ROS levels after NAC pre-treatment,"MDA-MB-231 [1]; MDA-MB-231, 10 mM NAC 2 h, then 10 μM for 1 h",no increase in ROS levels
same,Decrease of maximal OCR,"MDA-MB-231 [2]; MDA-MB-231, 1 μM, within 50 minutes, compared to control",more than 25%
same,Decrease of basal OCR,"MDA-MB-231 [2]; MDA-MB-231, 3 μM, 17 minutes from injection",more than 20%

# — PMC8162438, “Cancer cell-selective modulation of mitochondrial respiration and metabolism by potent organogold(III) dithiocarbamates” (Chemical Science, 2020)
